In PubChem BioAssay AID192 (DTP/NCI, 2004):
“And” between values parts separate entries of the source, which are not always exact repeats. Identical values can stand only once. Inconclusive results and toxic doses are left out.

System: BDF1 mice, B16 melanoma ip, median survival T/C
Experiment: NCI In Vivo Anticancer Drug Screen. Data for tumor model B16 Melanoma (intraperitoneal) in B6D2F1 (BDF1) mice
Conditions: endpoint: median survival time, higher = longer survival
Outline: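 Antitumor activity is assessed in mice bearing a transplanted tumor, with survival or tumor size compared against vehicle-dosed controls and expressed as T/C.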

[1] = dose: 100.0 mg/kg/injection, schedule: Q01DX009 (ip), vehicle: saline with Tween-80
[2] = dose: 25.0 mg/kg/injection, schedule: Q01DX009 (ip), vehicle: Klucel (hydroxypropylcellulose) (HPC)
[3] = dose: 50.0 mg/kg/injection, schedule: Q01DX009 (ip), vehicle: Klucel (hydroxypropylcellulose) (HPC)
[4] = dose: 100.0 mg/kg/injection, schedule: Q01DX009 (ip), vehicle: Klucel (hydroxypropylcellulose) (HPC)
[5] = dose: 200.0 mg/kg/injection, schedule: Q01DX009 (ip), vehicle: saline with Tween-80
[6] = dose: 400.0 mg/kg/injection, schedule: Q01DX009 (ip), vehicle: saline with Tween-80

## N[C@@H](Cc1ccc(N(CCCl)CCCl)cc1)C(=O)O
dose: 0.06 mg/kg/injection, schedule: Q01DX009 (ip), vehicle: saline
  T/C: 97 % of control
dose: 0.12 mg/kg/injection, schedule: Q01DX009 (ip), vehicle: saline
  T/C: 102 % of control
dose: 0.25 mg/kg/injection, schedule: Q01DX009 (ip), vehicle: saline
  T/C: 104 % of control
dose: 0.5 mg/kg/injection, schedule: Q01DX009 (ip), vehicle: carboxymethylcellulose (CMC)
  T/C: 95 % of control
dose: 0.5 mg/kg/injection, schedule: Q01DX009 (ip), vehicle: water
  T/C: 123 % of control
dose: 0.75 mg/kg/injection, schedule: Q01DX009 (ip), vehicle: Klucel (hydroxypropylcellulose) (HPC)
  T/C: 151 % of control
dose: 0.75 mg/kg/injection, schedule: Q01DX009 (ip), vehicle: saline
  T/C: 157 % of control
dose: 1.0 mg/kg/injection, schedule: Q01DX009 (ip), vehicle: carboxymethylcellulose (CMC)
  T/C: 88 % of control
dose: 1.0 mg/kg/injection, schedule: Q01DX009 (ip), vehicle: saline with Tween-80
  T/C: 180 % of control
dose: 1.0 mg/kg/injection, schedule: Q01DX009 (ip), vehicle: water
  T/C: 176 % of control
dose: 1.2 mg/kg/injection, schedule: Q01DX009 (ip), vehicle: saline
  T/C: 167 % of control
dose: 1.25 mg/kg/injection, schedule: Q01DX001 (ip), vehicle: water
  T/C: 123 % of control
dose: 1.5 mg/kg/injection, schedule: Q01DX009 (ip), vehicle: Klucel (hydroxypropylcellulose) (HPC)
  T/C: 188 % of control
dose: 1.5 mg/kg/injection, schedule: Q01DX009 (ip), vehicle: carboxymethylcellulose (CMC)
  T/C: 180 % of control
dose: 1.5 mg/kg/injection, schedule: Q01DX009 (ip), vehicle: saline
  T/C: 166 % of control and 197 % of control
dose: 2.0 mg/kg/injection, schedule: Q01DX009 (ip), vehicle: carboxymethylcellulose (CMC)
  T/C: 95 % of control
dose: 2.0 mg/kg/injection, schedule: Q01DX009 (ip), vehicle: saline with Tween-80
  T/C: 254 % of control
dose: 2.0 mg/kg/injection, schedule: Q01DX009 (ip), vehicle: water
  T/C: 188 % of control
dose: 2.5 mg/kg/injection, schedule: Q01DX001 (ip), vehicle: Klucel (hydroxypropylcellulose) (HPC)
  T/C: 164 % of control
dose: 3.0 mg/kg/injection, schedule: Q01DX009 (ip), vehicle: Klucel (hydroxypropylcellulose) (HPC)
  T/C: 198 % of control
dose: 3.0 mg/kg/injection, schedule: Q01DX009 (ip), vehicle: saline
  T/C: 171 % of control and 262 % of control
dose: 3.3 mg/kg/injection, schedule: Q01DX009 (ip), vehicle: saline
  T/C: 218 % of control
dose: 4.0 mg/kg/injection, schedule: Q01DX009 (ip), vehicle: carboxymethylcellulose (CMC)
  T/C: 94 % of control
dose: 4.0 mg/kg/injection, schedule: Q01DX009 (ip), vehicle: saline with Tween-80
  T/C: 200 % of control
dose: 4.0 mg/kg/injection, schedule: Q01DX009 (ip), vehicle: water
  T/C: 161 % of control
dose: 4.0 mg/kg/injection, schedule: Q04DX003 (ip), vehicle: saline
  T/C: 194 % of control
dose: 5.0 mg/kg/injection, schedule: Q01DX001 (ip), vehicle: Klucel (hydroxypropylcellulose) (HPC)
  T/C: 222 % of control
dose: 5.0 mg/kg/injection, schedule: Q01DX005 (ip), vehicle: saline
  T/C: 156 % of control
dose: 6.0 mg/kg/injection, schedule: Q01DX009 (ip), vehicle: carboxymethylcellulose (CMC)
  T/C: 106 % of control and 117 % of control
dose: 6.0 mg/kg/injection, schedule: Q01DX009 (ip), vehicle: saline
  T/C: 118 % of control
dose: 6.0 mg/kg/injection, schedule: Q04DX003 (ip), vehicle: Klucel (hydroxypropylcellulose) (HPC)
  T/C: 179 % of control
dose: 8.0 mg/kg/injection, schedule: Q04DX003 (ip), vehicle: saline
  T/C: 231 % of control
dose: 10.0 mg/kg/injection, schedule: Q01DX001 (ip), vehicle: Klucel (hydroxypropylcellulose) (HPC)
  T/C: 242 % of control
dose: 10.0 mg/kg/injection, schedule: Q01DX001 (ip), vehicle: water
  T/C: 191 % of control
dose: 10.0 mg/kg/injection, schedule: Q01DX005 (ip), vehicle: saline
  T/C: 194 % of control
dose: 12.0 mg/kg/injection, schedule: Q04DX003 (ip), vehicle: Klucel (hydroxypropylcellulose) (HPC)
  T/C: 169 % of control
dose: 16.0 mg/kg/injection, schedule: Q04DX003 (ip), vehicle: saline
  T/C: 169 % of control

## COc1ccc(CN(CCOC(=O)c2ccc(OC)cc2)CCN(CCOC(=O)c2ccc(OC)cc2)Cc2ccc(OC)cc2)cc1
dose: 3.12 mg/kg/injection, schedule: Q01DX009 (ip), vehicle: other
  T/C: 100 % of control
dose: 6.25 mg/kg/injection, schedule: Q01DX009 (ip), vehicle: other
  T/C: 89 % of control
dose: 12.5 mg/kg/injection, schedule: Q01DX009 (ip), vehicle: other
  T/C: 90 % of control
dose: 25.0 mg/kg/injection, schedule: Q01DX009 (ip), vehicle: other
  T/C: 92 % of control

## O=C(CO)c1ccc([N+](=O)[O-])cc1
dose: 3.12 mg/kg/injection, schedule: Q01DX009 (ip), vehicle: saline with Tween-80
  T/C: 97 % of control and 100 % of control
dose: 6.25 mg/kg/injection, schedule: Q01DX009 (ip), vehicle: saline with Tween-80
  T/C: 103 % of control
dose: 12.5 mg/kg/injection, schedule: Q01DX009 (ip), vehicle: saline with Tween-80
  T/C: 99 % of control and 106 % of control
dose: 25.0 mg/kg/injection, schedule: Q01DX009 (ip), vehicle: saline with Tween-80
  T/C: 100 % of control and 104 % of control
dose: 50.0 mg/kg/injection, schedule: Q01DX009 (ip), vehicle: saline with Tween-80
  T/C: 96 % of control and 108 % of control
[1]
  T/C: 93 % of control and 100 % of control

## O=[N+]([O-])c1cc([As](=O)(O)O)ccc1Cl
[2]
  T/C: 100 % of control
[3]
  T/C: 96 % of control
[4]
  T/C: 96 % of control

## CC[CH2][Sn]([Cl])([Cl])[CH2]CC.Oc1ccccc1C=NCCN=Cc1ccccc1O
dose: 0.6 mg/kg/injection, schedule: Q01DX009 (ip), vehicle: gum acacia
  T/C: 95 % of control
dose: 0.61 mg/kg/injection, schedule: Q01DX009 (ip), vehicle: gum acacia
  T/C: 100 % of control
dose: 1.25 mg/kg/injection, schedule: Q01DX009 (ip), vehicle: gum acacia
  T/C: 92 % of control and 100 % of control
dose: 2.5 mg/kg/injection, schedule: Q01DX009 (ip), vehicle: gum acacia
  T/C: 92 % of control and 94 % of control
dose: 5.0 mg/kg/injection, schedule: Q01DX009 (ip), vehicle: gum acacia
  T/C: 90 % of control and 97 % of control

## COc1cccc(CNc2cccc(Cl)c2Cl)c1OC
dose: 12.5 mg/kg/injection, schedule: Q01DX009 (ip), vehicle: Klucel (hydroxypropylcellulose) (HPC)
  T/C: 99 % of control
[2]
  T/C: 105 % of control
[3]
  T/C: 101 % of control
[4]
  T/C: 101 % of control
dose: 200.0 mg/kg/injection, schedule: Q01DX009 (ip), vehicle: Klucel (hydroxypropylcellulose) (HPC)
  T/C: 95 % of control
dose: 400.0 mg/kg/injection, schedule: Q01DX009 (ip), vehicle: Klucel (hydroxypropylcellulose) (HPC)
  T/C: 102 % of control

## Clc1cccc(/C=C2\c3cc(Cl)ccc3-c3c(Cl)cc(Cl)cc32)c1
[5]
  T/C: 100 % of control
[6]
  T/C: 97 % of control
dose: 800.0 mg/kg/injection, schedule: Q01DX009 (ip), vehicle: saline with Tween-80
  T/C: 93 % of control

## CC(=O)Oc1cccc(C#N)c1
[1]
  T/C: 108 % of control
[5]
  T/C: 112 % of control
[6]
  T/C: 91 % of control

## COCCNCCN1CCN(CCCN2c3ccccc3Sc3ccc(C(F)(F)F)cc32)CC1
dose: 3.75 mg/kg/injection, schedule: Q01DX009 (ip), vehicle: saline
  T/C: 109 % of control
dose: 7.5 mg/kg/injection, schedule: Q01DX009 (ip), vehicle: saline
  T/C: 107 % of control
dose: 15.0 mg/kg/injection, schedule: Q01DX009 (ip), vehicle: saline
  T/C: 111 % of control
dose: 30.0 mg/kg/injection, schedule: Q01DX009 (ip), vehicle: saline
  T/C: 88 % of control

## O=C(/C=C/C(=O)OCC(Cl)(Cl)Cl)OCC(Cl)(Cl)Cl
[1]
  T/C: 96 % of control
[5]
  T/C: 92 % of control

## CCN1Cc2ccc(O)cc2C1
dose: 25.0 mg/kg/injection, schedule: Q01DX009 (ip), vehicle: saline
  T/C: 98 % of control
dose: 50.0 mg/kg/injection, schedule: Q01DX009 (ip), vehicle: saline
  T/C: 100 % of control
dose: 100.0 mg/kg/injection, schedule: Q01DX009 (ip), vehicle: saline
  T/C: 97 % of control

## CCCCCCCCCCCC[N+]1(CCCCCCCCCCCC)CCCC(C)C1 (centres undefined)
dose: 0.09 mg/kg/injection, schedule: Q01DX009 (ip), vehicle: Klucel (hydroxypropylcellulose) (HPC)
  T/C: 95 % of control
dose: 0.18 mg/kg/injection, schedule: Q01DX009 (ip), vehicle: Klucel (hydroxypropylcellulose) (HPC)
  T/C: 97 % of control
dose: 0.37 mg/kg/injection, schedule: Q01DX009 (ip), vehicle: Klucel (hydroxypropylcellulose) (HPC)
  T/C: 93 % of control and 95 % of control
